Test results reported in ChEMBL document CHEMBL1138104, “Isolation, structure elucidation, antioxidative and immunomodulatory properties of two novel dihydrocoumarins from Aloe vera” (Bioorg Med Chem Lett, 2006).
Active and inactive are the calls of the source. No cut-off for these calls is given here.

How the values were obtained:
[1] = system: Radical scavenging activity; assay: Inhibition of hydroxyl radical scavenging activity; format: functional; settings: dose or concentration not given here
[2] = system: Radical scavenging activity; assay: Inhibition of superoxide radical scavenging activity; format: functional; settings: dose or concentration not given here
[3] = system: Peritoneal macrophage cell; assay: Enhancement of respiratory burst in rat peritoneal macrophage at 200 uM; format: functional, cell-based
[4] = system: Peritoneal macrophage cell; assay: Phagocytic function of rat peritoneal macrophage at 50-200 ug/ml; format: functional, cell-based

Compound	inhibition [1] [%]	inhibition [2] [%]	Activity [3]	Activity [4]
CCOC(=O)C[C@H](c1ccc(O)cc1)c1c(O)cc(O)c(-c2cc(OC)cc(=O)o2)c1C	42.3	30.3	inactive	–
COc1cc(-c2c(O)cc3c(c2C)[C@@H](c2ccc(O)cc2)CC(=O)O3)oc(=O)c1	43.7	42.3	Active	Dose-dependent effect
